This note sets out measurements from ChEMBL document CHEMBL1131516, “Sialyl Lewis X-polysaccharide conjugates: targeting inflammatory lesions” (Bioorg Med Chem Lett, 1998).

This test has as its target T1, E-selectin (Rattus norvegicus, UniProt P98105).
T1 sequence (P98105 whole entry): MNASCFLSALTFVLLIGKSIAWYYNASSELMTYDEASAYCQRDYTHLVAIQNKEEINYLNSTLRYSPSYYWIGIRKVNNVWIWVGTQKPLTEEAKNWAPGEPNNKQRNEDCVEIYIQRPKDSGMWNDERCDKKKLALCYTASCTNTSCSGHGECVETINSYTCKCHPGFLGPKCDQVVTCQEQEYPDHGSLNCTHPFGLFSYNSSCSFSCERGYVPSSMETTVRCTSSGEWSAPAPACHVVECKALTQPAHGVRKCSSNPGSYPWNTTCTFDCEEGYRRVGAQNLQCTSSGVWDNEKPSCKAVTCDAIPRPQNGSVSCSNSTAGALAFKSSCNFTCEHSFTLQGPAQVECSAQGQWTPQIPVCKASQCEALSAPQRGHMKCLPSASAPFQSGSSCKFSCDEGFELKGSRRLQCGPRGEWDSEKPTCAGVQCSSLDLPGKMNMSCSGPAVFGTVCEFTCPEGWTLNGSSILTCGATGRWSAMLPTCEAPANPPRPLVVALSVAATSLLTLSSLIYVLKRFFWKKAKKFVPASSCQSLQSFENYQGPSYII
The experiment in a line: Inhibitory concentration against Selectin E expressed at the inflammatory lesion was measured by inhibition of leukocyte rolling in the inflammatory model using IL-lbeta activated rat mesentery venules. (In vivo ). The test is classed as organism-based.

Consider `CCOCCOCCOCCOCCOCCO[C@@H]1O[C@@H](CO)[C@@H](O[C@@H]2O[C@@H](CO)[C@H](O)[C@H](O[C@]3(C(=O)O)C[C@@H](O)[C@@H](NC(C)=O)[C@H]([C@H](O)[C@H](O)CO)O3)[C@@H]2O)[C@H](O[C@@H]2O[C@@H](C)[C@@H](O)[C@H](O)[C@@H]2O)[C@@H]1NC(C)=O`, for which inhibition was half-maximal at 2.63 µM (IC50).
